Consider 33 molecules from patent US20110105496A1, “Methods For The Treatment Of Myosin Heavy Chain-Mediated Conditions Using 4,7-Dihydrothieno[2,3-B]Pyridine Compounds” (priority 2005, published 2011).

Molecules are shown by their SMILES.

For the assay, the system named is alpha-MyHC. The assay can be described thus: alpha-MyHC cytoblot process in neonatal rat ventricular myocytes (NRVM). Type of assay: cell-based. The following applies: Table 1, NRVM, 72 hours; for Max Plateau: maximum of dose response fit, low control = vehicle only; for EC50: alpha-MyHC cytoblot, mean ± spread. The protocol: In vitro activity of each compound is measured using the alpha-MyHC cytoblot process. Briefly, neonatal rat ventricular myocytes (NRVM) at 120,000 cells/ml in HyQ DME/High modified culture media supplemented with 10% charcoal/dextran treated FBS, 0.1% Nutridoma-SP, 1:100 MEM non-essential amino acids, 1:50 MEM amino acids solution w/o L-Gln, 1 mM sodium pyruvate and 1:100 P/S/G, are plated on gelatin coated sterile 384-well plates (Costar 3712) at 6,000 cells per well. Cells are incubated overnight at 37° C. in 5% CO2 100% humidity. Following overnight growth the media is changed to HyQ DME/High modified culture media supplemented with 0.3% Nutridoma-SP, 1:100 MEM non-essential amino acids, 1:50 MEM amino acids solution w/o L-Gln, 1 mM sodium pyruvate and 1:100 P/S/G. Cells are then dosed with serial dilutions of each compound in DMSO. Each concentration in the dose range is dosed in quadruplicate. Dosing is done in such a way so that the final DMSO concentration was 0.44%. Compound dilutions are 3-fold with the final top concentration of 10 uM. […] Following dosing, the cells are incubated for 72 hours at 37° C. in 5% CO2 100% humidity and then processed with the cytoblot method. Briefly, cell media is aspirated and cell monolayers washed with PBS and fixed with 100% methanol for 30 minutes. Fixed cells are then blocked with PBS, 0.05% Tween-20, 1% BSA, for 1 hour. Following blocking, cells are incubated with primary alpha-MyHC-specific antibody antibody (1:30 dilution of BA-G5 hybridoma conditioned media, ATCC HB276) for 1 hour. Following incubation with the primary antibody, cells are washed with PBS, 0.05% Tween-20, 1% BSA and incubated with secondary antibody (1:1000 dilution, goat-anti-mouse HRP, Southern Biotech, 1031-05) for 1 hour. Following incubation with the secondary antibody, wells are washed and incubated in SuperSignal, West Dura HRP-luminescence substrate for 30 seconds under shaking at room temperature. Luminescence is measured using a Packard Fusion plate reader. […] RLU values are converted into per cent fraction of low control and dose responses are fitted to a sigmoidal 4-parameter equation (XLFit, IDBS) where the EC50 and Max Plateau values were extracted. […] Max Plateau is the […] maximum value determined by the dose response fit.

As for `CCC(=O)C1=C(CC)Nc2sc(C(=O)c3ccc(Cl)c(Cl)c3)c(N)c2C1c1ccccc1C(F)(F)F` (stereo not shown) [Compound 60], the “Max Plateau” value is 100.00 ± 0.00 per cent fraction of low control.

As for `CC(=O)C1=C(C)Nc2sc(C(=O)c3cccc(F)c3)c(N)c2C1c1ccccc1` (stereo not shown) [Compound 61], the 50% effective concentration (EC50) was found to be 97.1 nM and the “Max Plateau” value is on record as 230.65 ± 55.61 per cent fraction of low control.

As for `COC(=O)c1cccc(C(=O)c2sc3c(c2N)C(c2ccccc2)C(C(C)=O)=C(C)N3)c1` (stereo not shown) [Compound 62], a half-maximal response (EC50) required 361 nM and the “Max Plateau” value is listed as 279.31 ± 67.94 per cent fraction of low control.

As for `CCC(=O)C1=C(CC)Nc2sc(C(=O)c3ccc(Cl)c(Cl)c3)c(N)c2C1c1c(F)cccc1F` (stereo not shown) [Compound 63], the EC50 was 20.8 nM and the “Max Plateau” value is given as 230.07 ± 45.59 per cent fraction of low control.

As to `CCC(=O)C1=C(CC)Nc2sc(C(=O)c3cc(Cl)ccc3Cl)c(N)c2C1c1ccccc1` (stereo not shown) [Compound 64], the response was half-maximal at 10.2 nM (EC50) and the “Max Plateau” value is 281.39 ± 54.54 per cent fraction of low control.

In the case of `CC(=O)C1=C(C)Nc2sc(C(=O)c3cccc(C(=O)O)c3)c(N)c2C1c1ccccc1` (stereo not shown) [Compound 65], the “Max Plateau” value is 100.00 ± 0.00 per cent fraction of low control.

Regarding `CCC(=O)C1=C(CC)Nc2sc(C(=O)c3cccc(Cl)c3)c(N)c2C1c1ccccc1` (stereo not shown) [Compound 66], the response was half-maximal at 4.94 nM (EC50) and the “Max Plateau” value is given as 306.19 ± 54.21 per cent fraction of low control.

With `CCC(=O)C1=C(CC)Nc2sc(C(=O)c3ccccc3F)c(N)c2C1c1ccccc1` (stereo not shown) [Compound 67], the concentration for a half-maximal effect (EC50) was determined as 12.1 nM and the “Max Plateau” value is on record as 256.12 ± 53.66 per cent fraction of low control.

Take `CCC(=O)C1=C(CC)Nc2sc(C(=O)c3ccccc3)c(N)c2C1c1cccnc1` (stereo not shown) [Compound 68]: the concentration for a half-maximal effect (EC50) came out at 233 nM and the “Max Plateau” value is listed as 175.88 ± 14.54 per cent fraction of low control.

`CCC(=O)C1=C(CC)Nc2sc(C(=O)c3ccccc3)c(N)c2C1c1c(F)cccc1F` (stereo not shown) [Compound 69]: the EC50 was determined as 31.7 nM and the “Max Plateau” value is 221.36 ± 15.94 per cent fraction of low control.

Turning to `CCC(=O)C1=C(CC)Nc2sc(C(=O)c3ccc(Cl)cc3Cl)c(N)c2C1c1ccccc1` (stereo not shown) [Compound 70], the EC50 stood at 51.7 nM and the “Max Plateau” value is recorded as 191.97 ± 13.09 per cent fraction of low control.

Consider `CCC(=O)C1=C(CC)Nc2sc(C(=O)c3ccc4c(c3)OCO4)c(N)c2C1c1ccccc1F` (stereo not shown) [Compound 71], for which the half-maximal effective concentration (EC50) stood at 57.5 nM and the “Max Plateau” value is reported as 223.30 ± 32.84 per cent fraction of low control.

As to `CCC(=O)C1=C(CC)Nc2sc(C(=O)c3ccc(F)c(F)c3)c(N)c2C1c1ccccc1` (stereo not shown) [Compound 72], it took 9.23 nM to reach a half-maximal effect (EC50) and the “Max Plateau” value is recorded as 223.99 ± 24.51 per cent fraction of low control.

On to `CCC(=O)C1=C(CC)Nc2sc(C(=O)c3cc(C(F)(F)F)cc(C(F)(F)F)c3)c(N)c2C1c1ccccc1` (stereo not shown) [Compound 73], for which the response was half-maximal at 8.92 nM (EC50) and the “Max Plateau” value is reported as 205.27 ± 38.78 per cent fraction of low control.

Regarding `CCC(=O)C1=C(CC)Nc2sc(C(=O)c3cccc(C(=O)OC)c3)c(N)c2C1c1ccccc1` (stereo not shown) [Compound 74], the EC50 came to 9.84 nM and the “Max Plateau” value is listed as 262.81 ± 32.38 per cent fraction of low control.

Regarding `CCC(=O)C1=C(CC)Nc2sc(C(=O)c3ccc(Cl)c(Cl)c3)c(N)c2C1c1cccnc1` (stereo not shown) [Compound 75], the EC50 was found to be 61.3 nM and the “Max Plateau” value is 226.71 ± 40.80 per cent fraction of low control.

Regarding `CCC(=O)C1=C(CC)Nc2sc(C(=O)c3cc(F)cc(F)c3)c(N)c2C1c1ccccc1` (stereo not shown) [Compound 76], the half-maximal effective concentration (EC50) was 24.2 nM and the “Max Plateau” value is on record as 230.70 ± 23.22 per cent fraction of low control.

For the molecule `CCC(=O)C1=C(CC)Nc2sc(C(=O)c3cccc(C(=O)O)c3)c(N)c2C1c1ccccc1` (stereo not shown) [Compound 77], it took 2140 nM to reach a half-maximal effect (EC50) and the “Max Plateau” value was 220.00 ± 10.00 per cent fraction of low control.

As for `CCC(=O)C1=C(CC)Nc2sc(C(=O)c3ccccc3)c(N)c2C1c1ccccc1F` (stereo not shown) [Compound 78], a half-maximal effect (EC50) was put at 6.77 nM and the “Max Plateau” value was 269.77 ± 35.30 per cent fraction of low control.

For the molecule `CCC(=O)C1=C(CC)Nc2sc(C(=O)c3ccc(F)cc3)c(N)c2C1c1ccccc1` (stereo not shown) [Compound 79], a half-maximal effect (EC50) was put at 40.8 nM and the “Max Plateau” value is listed as 241.90 ± 15.79 per cent fraction of low control.

Take `CCC(=O)C1=C(CC)Nc2sc(C(=O)c3ccc(Cl)cc3)c(N)c2C1c1ccccc1` (stereo not shown) [Compound 80]: the half-maximal effective concentration (EC50) was 103 nM and the “Max Plateau” value is listed as 226.13 ± 5.25 per cent fraction of low control.

Regarding `CCC(=O)C1=C(CC)Nc2sc(C(=O)c3ccc(Cl)c(Cl)c3)c(N)c2C1c1ccc(OC)cc1F` (stereo not shown) [Compound 81], the EC50 came out at 350 nM and the “Max Plateau” value is 184.00 ± 15.51 per cent fraction of low control.

In the case of `CCC(=O)C1=C(CC)Nc2sc(C(=O)c3ccccc3Cl)c(N)c2C1c1ccccc1` (stereo not shown) [Compound 82], the EC50 is 14.8 nM and the “Max Plateau” value is 245.96 ± 30.73 per cent fraction of low control.

Regarding `CCC(=O)C1=C(CC)Nc2sc(C(=O)c3ccc(Cl)c(Cl)c3)c(N)c2C1c1ccc(O)cc1Cl` (stereo not shown) [Compound 83], the half-maximal effective concentration (EC50) amounted to 0.249 nM and the “Max Plateau” value is recorded as 274.88 ± 44.56 per cent fraction of low control.

`CCC(=O)C1=C(CC)Nc2sc(C(=O)c3ccc(Cl)c(Cl)c3)c(N)c2C1c1cccc(F)c1` (stereo not shown) [Compound 84]: the EC50 came to 5.4 nM and the “Max Plateau” value is 242.72 ± 19.34 per cent fraction of low control.

In the case of `CCC(=O)C1=C(CC)Nc2sc(C(=O)c3ccc(Cl)c(Cl)c3)c(N)c2C1c1cccc2ccccc12` (stereo not shown) [Compound 85], the “Max Plateau” value was 105.90 ± 6.18 per cent fraction of low control.

Take `CCCC(=O)C1=C(CCC)Nc2sc(C(=O)c3ccc(Cl)c(Cl)c3)c(N)c2C1c1ccccc1` (stereo not shown) [Compound 86]: the EC50 was found to be 627 nM and the “Max Plateau” value is given as 131.26 ± 2.34 per cent fraction of low control.

As to `CCCC(=O)C1=C(CCC)Nc2sc(C(=O)c3ccc(Cl)c(Cl)c3)c(N)c2C1c1ccccc1F` (stereo not shown) [Compound 87], a half-maximal response (EC50) required 217 nM and the “Max Plateau” value was 187.66 ± 12.24 per cent fraction of low control.

`CCC(=O)C1=C(CC)Nc2sc(C(=O)c3ccc(Cl)c(Cl)c3)c(N)c2C1c1ccc2ccccc2c1` (stereo not shown) [Compound 88]: the “Max Plateau” value is recorded as 113.45 ± 11.92 per cent fraction of low control.

`CCC(=O)C1=C(CC)Nc2sc(C(=O)c3ccc(Cl)c(C)c3)c(N)c2C1c1ccccc1` (stereo not shown) [Compound 89]: the concentration for a half-maximal effect (EC50) amounted to 9.69 nM and the “Max Plateau” value is given as 230.09 ± 19.81 per cent fraction of low control.

Take `CCC(=O)C1=C(CC)Nc2sc(C(=O)c3cc(C(C)(C)C)c(O)c(C(C)(C)C)c3)c(N)c2C1c1ccccc1` (stereo not shown) [Compound 90]: the “Max Plateau” value was 300.00 ± 0.00 per cent fraction of low control.

For `CCCC(=O)C1=C(CCC)Nc2sc(C(=O)c3ccc(Cl)cc3Cl)c(N)c2C1c1ccccc1F` (stereo not shown) [Compound 91], the EC50 came to 198 nM and the “Max Plateau” value is listed as 143.39 ± 20.69 per cent fraction of low control.

Take `CCCC(=O)C1=C(CCC)Nc2sc(C(=O)c3cc(Cl)ccc3Cl)c(N)c2C1c1ccccc1F` (stereo not shown) [Compound 92]: the response was half-maximal at 50.5 nM (EC50) and the “Max Plateau” value is reported as 189.00 ± 25.40 per cent fraction of low control.
